Results: article PMC10189658 (Journal of inorganic biochemistry, 2023)

Target: T1, human heme oxygenase-1 (hHO-1) (Homo sapiens, UniProt P09601)
T1 sequence (P09601 1-288): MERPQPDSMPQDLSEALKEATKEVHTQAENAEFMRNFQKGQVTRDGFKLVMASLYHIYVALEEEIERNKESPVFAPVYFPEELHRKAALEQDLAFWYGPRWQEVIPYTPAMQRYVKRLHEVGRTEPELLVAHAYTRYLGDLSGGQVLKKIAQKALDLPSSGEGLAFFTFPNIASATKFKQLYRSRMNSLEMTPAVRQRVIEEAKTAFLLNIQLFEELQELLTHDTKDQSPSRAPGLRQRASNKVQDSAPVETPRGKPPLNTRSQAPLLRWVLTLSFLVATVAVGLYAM
Assay: UV-Vis Soret equilibrium binding titration

- Kd: 4.46 ± 0.8 µM
SMILES: Brc1ccc(CCC2(Cn3ccnc3)OCCO2)cc1 [OB-24]
